Where two headings read alike, the source gives them in different places.
Assays:
[1] = system: Ba/F3 cells expressing EGFR mutations; assay: Cell proliferation assay, Ba/F3 cells expressing EGFR mutations (CellTiter-Glo, 72 hours); format: cell-based; conditions: CellTiter-Glo
Summary of the method: (§1)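 Luminescent viable-cell counts were taken on a day 0 plate at dosing and again at endpoint. Proliferation was calculated as (sample − G0)/(DMSO − G0). Seeding was 5000 Ba/F3 or 500 PC-9 cells per well in RPMI1640, followed by overnight attachment and serial compound dilutions. The GI50 was fitted.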

EGFR (C797S L858R) = biological target: T1, EGFR (C797S L858R) (Homo sapiens, UniProt P00533, C797S/L858R); assay: Inhibition of EGFR (C797S L858R) biochemical enzymatic activity (HTRF); conditions: EGFR L858-C797S, 1 mM ATP, 1 h, room temperature, read-out: IC50 (nM) @L858-C797S
T1 construct: purchased signalchem
T1 sequence (P00533 25-1210 C797S/L858R): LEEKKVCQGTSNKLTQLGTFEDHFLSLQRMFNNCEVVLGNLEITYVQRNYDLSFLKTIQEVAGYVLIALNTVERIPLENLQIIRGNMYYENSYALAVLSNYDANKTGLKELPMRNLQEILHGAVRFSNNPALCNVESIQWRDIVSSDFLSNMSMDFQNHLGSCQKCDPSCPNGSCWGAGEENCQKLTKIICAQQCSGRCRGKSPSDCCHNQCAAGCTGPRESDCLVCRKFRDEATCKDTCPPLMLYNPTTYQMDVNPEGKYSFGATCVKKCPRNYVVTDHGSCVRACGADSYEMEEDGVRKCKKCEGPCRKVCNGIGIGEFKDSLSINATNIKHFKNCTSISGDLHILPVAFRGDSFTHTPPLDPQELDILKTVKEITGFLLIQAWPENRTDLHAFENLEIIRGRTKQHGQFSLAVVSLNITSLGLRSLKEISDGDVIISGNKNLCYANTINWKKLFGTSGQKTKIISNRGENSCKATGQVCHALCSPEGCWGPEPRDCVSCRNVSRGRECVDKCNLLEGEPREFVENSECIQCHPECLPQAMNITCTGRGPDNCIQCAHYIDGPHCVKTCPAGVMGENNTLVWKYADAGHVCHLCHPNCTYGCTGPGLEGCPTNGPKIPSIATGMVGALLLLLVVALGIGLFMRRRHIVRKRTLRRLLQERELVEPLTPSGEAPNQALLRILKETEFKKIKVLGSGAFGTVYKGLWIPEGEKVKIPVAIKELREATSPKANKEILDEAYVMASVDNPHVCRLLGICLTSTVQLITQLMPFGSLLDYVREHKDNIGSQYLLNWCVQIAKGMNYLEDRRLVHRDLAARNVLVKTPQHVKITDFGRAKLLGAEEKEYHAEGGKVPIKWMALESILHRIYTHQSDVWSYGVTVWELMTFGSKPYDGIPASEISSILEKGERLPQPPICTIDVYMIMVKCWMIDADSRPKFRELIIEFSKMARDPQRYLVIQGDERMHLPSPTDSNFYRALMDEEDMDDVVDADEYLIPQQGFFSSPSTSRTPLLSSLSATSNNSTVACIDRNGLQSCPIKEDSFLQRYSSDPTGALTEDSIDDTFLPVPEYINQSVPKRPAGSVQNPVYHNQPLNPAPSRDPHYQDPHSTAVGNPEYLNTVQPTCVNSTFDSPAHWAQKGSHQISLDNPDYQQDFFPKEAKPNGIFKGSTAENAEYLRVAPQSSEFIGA
Summary of the method: (§2)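 Compounds at varying concentrations were tested against each EGFR form using 1 mM ATP and 1 μM TK Substrate-biotin. Reactions ran 1 h at room temperature in Mg2+/Mn2+ buffer with CHAPS, DTT and 0.5% DMSO. Time-resolved fluorescence gave IC50 by four-parameter fit.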

A-431 = assay: Cell proliferation GI50, A-431 cells (Table 6); format: cell-based
EGFR L858R/T790M = biological target: T2, EGFR L858R/T790M (Homo sapiens, UniProt P00533, L858R/T790M); assay: Inhibition of EGFR L858R/T790M biochemical enzymatic activity (HTRF); conditions: EGFR L858R-T790M, 1 mM ATP, 1 h, room temperature, read-out: IC50 (nM) @L858R-T790M
T2 construct: purchased Carna Bio
Summary of the method: as §2

EGFR Exon19Del/T790M = biological target: T3, EGFR Exon19Del/T790M (Homo sapiens, UniProt P00533, DEL746-750/T790M); assay: Inhibition of EGFR Exon19Del/T790M biochemical enzymatic activity (HTRF); conditions: EGFR Del19-T790M, 1 mM ATP, 1 h, room temperature, read-out: IC50 (nM) @Del19-T790M
T3 construct: purchased Carna Bio
T3 sequence (P00533 with tags, fused parts or gaps DEL746-750/T790M limits assumed): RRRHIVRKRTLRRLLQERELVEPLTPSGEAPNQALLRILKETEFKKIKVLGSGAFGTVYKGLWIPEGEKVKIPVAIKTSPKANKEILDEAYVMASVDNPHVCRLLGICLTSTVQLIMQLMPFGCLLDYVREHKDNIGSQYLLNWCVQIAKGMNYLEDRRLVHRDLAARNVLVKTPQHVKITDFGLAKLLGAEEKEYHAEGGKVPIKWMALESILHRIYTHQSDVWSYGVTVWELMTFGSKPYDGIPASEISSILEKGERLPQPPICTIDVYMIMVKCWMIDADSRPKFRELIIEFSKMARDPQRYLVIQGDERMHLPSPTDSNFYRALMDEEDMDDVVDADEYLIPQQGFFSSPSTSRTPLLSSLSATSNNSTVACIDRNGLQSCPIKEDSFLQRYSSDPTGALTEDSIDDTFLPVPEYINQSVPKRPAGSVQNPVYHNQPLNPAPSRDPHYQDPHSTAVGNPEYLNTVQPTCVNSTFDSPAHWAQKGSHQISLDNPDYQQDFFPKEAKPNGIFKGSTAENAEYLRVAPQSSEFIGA
Summary of the method: as §2

EGFR[T790M/C797S/L858R] = biological target: T4, EGFR[T790M/C797S/L858R] (Homo sapiens, UniProt P00533, C797S/L858R/T790M); assay: Inhibition of EGFR[T790M/C797S/L858R] biochemical enzymatic activity (HTRF); conditions: EGFR T790M-C797S-L858R, 1 mM ATP, 1 h, room temperature, read-out: IC50 (nM) @T790M- C797S - L858R
T4 construct: purchased Carna Bio
Summary of the method: as §2

EGFR Exon19Del = biological target: T5, EGFR Exon19Del (Homo sapiens, UniProt P00533, DEL746-750); assay: Inhibition of EGFR Exon19Del biochemical enzymatic activity (HTRF); conditions: EGFR Del19, 1 mM ATP, 1 h, room temperature, read-out: IC50 @Del19
T5 construct: purchased Carna Bio
T5 sequence (P00533 with tags, fused parts or gaps DEL746-750 limits assumed): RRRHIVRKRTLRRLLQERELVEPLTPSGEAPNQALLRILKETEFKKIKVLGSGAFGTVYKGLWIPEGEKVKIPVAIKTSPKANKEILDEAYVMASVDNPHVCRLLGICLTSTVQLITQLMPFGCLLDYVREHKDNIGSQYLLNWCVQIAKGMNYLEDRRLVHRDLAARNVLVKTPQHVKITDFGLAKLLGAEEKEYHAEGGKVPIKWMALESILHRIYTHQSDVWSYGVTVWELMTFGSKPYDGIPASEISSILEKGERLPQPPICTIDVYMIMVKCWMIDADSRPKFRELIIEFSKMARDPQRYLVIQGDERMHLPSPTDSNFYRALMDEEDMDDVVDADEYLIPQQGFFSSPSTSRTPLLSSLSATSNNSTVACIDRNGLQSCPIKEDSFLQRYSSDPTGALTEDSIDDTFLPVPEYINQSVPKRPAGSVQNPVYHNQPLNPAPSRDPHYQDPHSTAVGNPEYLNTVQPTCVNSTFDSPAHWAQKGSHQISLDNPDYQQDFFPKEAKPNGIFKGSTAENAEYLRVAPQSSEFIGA
Summary of the method: as §2

EGFR (d746-750 C797S) = biological target: T6, EGFR (d746-750 C797S) (Homo sapiens, UniProt P00533, C797S/DEL746-750); assay: Inhibition of EGFR (d746-750 C797S) biochemical enzymatic activity (HTRF); conditions: EGFR Del19-C797S, 1 mM ATP, 1 h, room temperature, read-out: IC50 (nM) @Del19-C797S
T6 construct: purchased signalchem
T6 sequence (P00533 with tags, fused parts or gaps DEL746-750/C797S limits assumed): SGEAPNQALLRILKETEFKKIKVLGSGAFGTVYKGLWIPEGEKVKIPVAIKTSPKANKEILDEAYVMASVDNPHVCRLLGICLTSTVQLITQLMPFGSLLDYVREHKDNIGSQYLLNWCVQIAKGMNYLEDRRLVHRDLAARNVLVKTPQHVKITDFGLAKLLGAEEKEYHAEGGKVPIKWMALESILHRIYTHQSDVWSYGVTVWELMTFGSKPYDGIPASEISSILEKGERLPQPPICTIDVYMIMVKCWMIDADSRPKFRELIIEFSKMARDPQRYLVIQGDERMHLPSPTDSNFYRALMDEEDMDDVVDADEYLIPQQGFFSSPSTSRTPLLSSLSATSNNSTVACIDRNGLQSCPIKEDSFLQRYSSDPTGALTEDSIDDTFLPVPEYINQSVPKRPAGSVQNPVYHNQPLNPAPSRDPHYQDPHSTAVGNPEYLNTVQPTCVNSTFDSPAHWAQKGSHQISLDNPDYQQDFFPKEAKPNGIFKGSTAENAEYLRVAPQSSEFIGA
Summary of the method: as §2

PC-9 = assay: Cell proliferation assay, PC-9 cells (CellTiter-Glo, 72 hours); format: cell-based; conditions: PC9 cells, CellTiter-Glo, read-out: PC9 GI50
Summary of the method: as §1

EGFR L858R = biological target: T7, EGFR L858R (Homo sapiens, UniProt P00533, L858R); assay: Inhibition of EGFR L858R biochemical enzymatic activity (HTRF); conditions: 1 mM ATP, 1 h, room temperature, read-out: IC50 (nM) @L858R
T7 construct: purchased Carna Bio
T7 sequence (P00533 25-1210 L858R): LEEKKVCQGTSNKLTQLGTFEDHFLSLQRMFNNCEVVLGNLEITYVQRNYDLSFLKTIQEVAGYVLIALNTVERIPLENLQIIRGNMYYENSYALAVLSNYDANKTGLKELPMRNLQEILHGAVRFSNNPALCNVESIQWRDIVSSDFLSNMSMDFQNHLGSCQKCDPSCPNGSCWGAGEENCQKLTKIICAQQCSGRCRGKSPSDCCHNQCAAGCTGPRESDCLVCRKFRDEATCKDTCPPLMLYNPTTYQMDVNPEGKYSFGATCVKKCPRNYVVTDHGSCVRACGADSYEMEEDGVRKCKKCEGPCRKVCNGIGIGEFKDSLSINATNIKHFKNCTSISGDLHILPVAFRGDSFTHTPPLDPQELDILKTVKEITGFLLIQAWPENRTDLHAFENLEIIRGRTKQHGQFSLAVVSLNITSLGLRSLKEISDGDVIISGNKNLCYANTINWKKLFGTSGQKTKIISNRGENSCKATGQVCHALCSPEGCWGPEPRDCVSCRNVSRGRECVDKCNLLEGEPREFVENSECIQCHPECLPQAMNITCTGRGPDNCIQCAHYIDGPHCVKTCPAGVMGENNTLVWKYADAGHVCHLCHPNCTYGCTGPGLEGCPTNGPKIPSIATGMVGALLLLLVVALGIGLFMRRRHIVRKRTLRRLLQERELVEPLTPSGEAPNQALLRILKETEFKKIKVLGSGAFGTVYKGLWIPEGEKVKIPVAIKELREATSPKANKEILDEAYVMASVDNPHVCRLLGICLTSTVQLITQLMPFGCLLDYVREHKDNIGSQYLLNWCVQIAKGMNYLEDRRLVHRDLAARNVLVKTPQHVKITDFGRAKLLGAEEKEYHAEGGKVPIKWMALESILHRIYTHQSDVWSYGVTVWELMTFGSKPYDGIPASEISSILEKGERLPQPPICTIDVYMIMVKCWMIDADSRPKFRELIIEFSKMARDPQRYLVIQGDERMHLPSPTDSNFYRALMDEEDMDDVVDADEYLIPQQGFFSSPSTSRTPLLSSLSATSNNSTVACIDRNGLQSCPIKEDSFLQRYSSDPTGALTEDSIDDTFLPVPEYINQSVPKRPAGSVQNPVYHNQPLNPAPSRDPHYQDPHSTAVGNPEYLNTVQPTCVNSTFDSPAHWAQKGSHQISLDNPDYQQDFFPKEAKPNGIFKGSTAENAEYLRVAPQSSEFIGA
Summary of the method: as §2

[2] = biological target: T8, EGFR[T790M/C797S/d746-750] (Homo sapiens, UniProt P00533, C797S/DEL746-750/T790M); assay: Inhibition of EGFR[T790M/C797S/d746-750] biochemical enzymatic activity (HTRF); conditions: EGFR T790M-C797S-Del19, 1 mM ATP, 1 h, room temperature, read-out: IC50 (nM) @T790M - C797S - Del19
T8 construct: purchased Carna Bio
T8 sequence (P00533 with tags, fused parts or gaps DEL746-750/T790M/C797S limits assumed): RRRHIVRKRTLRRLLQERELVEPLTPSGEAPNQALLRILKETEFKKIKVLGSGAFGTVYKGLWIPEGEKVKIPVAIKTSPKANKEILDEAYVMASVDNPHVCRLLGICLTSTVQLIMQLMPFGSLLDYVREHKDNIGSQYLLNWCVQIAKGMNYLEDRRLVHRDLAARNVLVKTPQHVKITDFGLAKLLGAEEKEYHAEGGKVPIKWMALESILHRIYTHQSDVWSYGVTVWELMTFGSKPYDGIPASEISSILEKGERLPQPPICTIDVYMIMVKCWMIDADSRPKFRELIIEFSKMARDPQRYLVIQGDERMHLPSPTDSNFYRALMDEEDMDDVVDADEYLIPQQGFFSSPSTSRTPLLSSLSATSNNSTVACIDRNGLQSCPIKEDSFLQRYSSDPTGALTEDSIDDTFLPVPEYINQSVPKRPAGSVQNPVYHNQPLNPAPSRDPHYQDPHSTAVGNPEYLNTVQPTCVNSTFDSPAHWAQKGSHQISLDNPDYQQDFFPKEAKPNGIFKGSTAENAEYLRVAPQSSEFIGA
Summary of the method: as §2

EGFR wild type = biological target: T9, EGFR wild type (Homo sapiens, UniProt P00533); assay: Inhibition of EGFR wild type biochemical enzymatic activity (HTRF); conditions: EGFR WT, 1 mM ATP, 1 h, room temperature, read-out: IC50 (nM) @WT
T9 construct: purchased Carna Bio
Summary of the method: as §2

[3] = BaF3 cells, EGFR DEL19-C797S, read-out: DEL19-C797S/BaF3 GI50
[4] = BaF3 cells, EGFR DEL19-T790-C797S, read-out: DEL19-T790-C797S/BaF3 GI50
[5] = BaF3 cells, EGFR L858R, read-out: L858R/BaF3 GI50
[6] = BaF3 cells, EGFR L858R-C797S, read-out: L858R-C797S/BaF3 GI50
[7] = BaF3 cells, EGFR L858R-T790-C797S, read-out: L858R-T790-C797S/BaF3 GI50
[8] = BaF3 cells, EGFR L858R-T790M, read-out: L858R-T790M/BaF3 GI50
[9] = EGFR DEL19-T790M, read-out: DEL19-T790M GI50
[10] = Homo sapiens, A-431, A-431 cells

Compound | GI50 [1, 3] [nM] | GI50 [1, 4] [nM] | GI50 [1, 5] [nM] | GI50 [1, 6] [nM] | GI50 [1, 7] [nM] | GI50 [1, 8] [nM] | GI50 [1, 9] [nM] | IC50 (EGFR (C797S L858R)) [nM] | GI50 (A-431; [10]) [nM] | IC50 (EGFR L858R/T790M) [nM] | IC50 (EGFR Exon19Del/T790M) [nM] | IC50 (EGFR[T790M/C797S/L858R]) [nM] | IC50 (EGFR Exon19Del) [nM] | IC50 (EGFR (d746-750 C797S)) [nM] | GI50 (PC-9) [nM] | IC50 (EGFR L858R) [nM] | IC50 [2] [nM] | IC50 (EGFR wild type) [nM] | GI50 (PC-9; Homo sapiens, PC-9, 72 h) [nM] | GI50 (A-431; A-431 cells) [nM] | other results
CN1C2CC1CN(c1ccc3nc4n(c3c1)C13CCC(CN(CCOc5c(cnn5C)-c5cc(cn(C)c5=O)C(=O)N4)C1)C3)C2 (single isomer, unassigned) [Example A98B] | 0.64 | 1.5 | 0.54 | 2.8 | 1.1 | 3 | 1.5 | 4.1 | 280 | 2.7 | 2.9 | 2.3 | 1.8 | 1.3 | 7.6 | 3.3 | 2.7 | 21 |  |  | 
Cn1ncc2c1OCCN1CC3CCC(C3)(C1)n1c(nc3ccc(N4CCOCC4)cc31)NC(=O)c1cc-2c(=O)n(C)c1 (single isomer, unassigned) [Example A62B, 15,21-Dimethyl-5-(morpholin-4-yl)-23-oxa-2,9,11,15,20,21,26-heptaazaheptacyclo[24.4.1.1^{1,28}.1^{13,17}.0^{2,10}.0^{3,8}.0^{18,22}]tritriaconta-3,5,7,9,13,17(33),18(22),19-octaene-12,16-dione] |  |  |  |  |  |  |  | 19 | 1070 | 6.3 | 2.8 | 4.3 | 3.5 | 1.4 |  | 45 | 2.9 | 809 | 10 |  | GI50 ([1]; Mus musculus, BaF3, 72 h, BaF3 cells, EGFR DEL19-C797S, read-out: DEL19-C797S/BaF3 GI50): 0.64 nM; GI50 ([1]; Mus musculus, BaF3, 72 h, BaF3 cells, EGFR DEL19-T790-C797S, read-out: DEL19-T790-C797S/BaF3 GI50): 2.5 nM; GI50 ([1]; Mus musculus, BaF3, 72 h, BaF3 cells, EGFR L858R, read-out: L858R/BaF3 GI50): 3.9 nM; GI50 ([1]; Mus musculus, BaF3, 72 h, BaF3 cells, EGFR L858R-C797S, read-out: L858R-C797S/BaF3 GI50): 5.2 nM; GI50 ([1]; Mus musculus, BaF3, 72 h, BaF3 cells, EGFR L858R-T790-C797S, read-out: L858R-T790-C797S/BaF3 GI50): 5.3 nM; GI50 ([1]; Mus musculus, BaF3, 72 h, BaF3 cells, EGFR L858R-T790M, read-out: L858R-T790M/BaF3 GI50): 8.4 nM; GI50 ([1]; Mus musculus, BaF3, 72 h, EGFR DEL19-T790M, read-out: DEL19-T790M GI50): 2.6 nM
CCC1CCCOc2c(cnn2C)-c2cc(cn(C)c2=O)C(=O)Nc2nc3ccc(N4CCN(C)CC4)cc3n2C1 (single isomer, unassigned) [Example A16A, 11-Ethyl-5,26-dimethyl-16-(4-methylpiperazin-1-yl)-7-oxa-4,5,13,20,22,26-hexaazapentacyclo[22.3.1.0^{2,6}.0^{13,21}.0^{14,19}]octacosa-1(28),2(6),3,14,16,18,20,24-octaene-23,27-dione] | 73 | 122 | 182 | 113 | 161 | 165 | 117 | 1350 |  | > 5000 | 127 | > 5000 | 150 | 152 |  | > 5000 | 115 | > 5000 | 139 | 95 | 
CN(C)C1CCN(c2ccc3nc4n(c3c2)C23CCC(CN(CCOc5c(cnn5C)-c5cc(cn(C)c5=O)C(=O)N4)C2)C3)CC1(F)F (single isomer, unassigned) [Example A97B] | 0.76 | 5.6 | 2 | 3 | 3.5 | 13 | 6.4 | 8.4 |  | 5.7 | 4.9 | 4.7 | 4.4 | 1.7 | 24 | 14 | 4.8 | 224 |  | 1450 | 
CN1CC2(CCN(c3ccc4nc5n(c4c3)C34CCC(CN(CCOc6c(cnn6C)-c6cc(cn(C)c6=O)C(=O)N5)C3)C4)C2)C1 (single isomer, unassigned) [Example A73B] | 0.54 | 1.9 | 1.8 | 3.5 | 1.9 | 8 | 1.5 | 2.9 | 1070 | 1.9 | 2.2 | 1.9 | 1.3 | 1.4 | 7.3 | 4 | 2.1 | 13 |  |  | 

From US20260365670A1, “EGFR INHIBITORS AND USES THEREOF” (DIZAL (JIANGSU) PHARMACEUTICAL CO., LTD., priority 2022, published 2026)
